Measurements published in patent US6500222B2, “Diureides and their use” (priority 1999, dated 2002).

Tests used:
[1] = system: mustard seedlings (Sinapis alba, 'Maxi'); assay: Mustard seedling test on plant tolerance, growth and yield
[2] = system: ryegrass; assay: Crop production experiment in Mitscherlich containers with ryegrass as test crop; conditions: 2.4 g of N per container
[3] = N fertilization 100 mg/container, DAT 13
[4] = N fertilization 100 mg/container, DAT 23
[5] = N fertilization 200 mg/container, DAT 13
[6] = N fertilization 200 mg/container, DAT 23
[7] = N fertilization 400 mg/container, DAT 13
[8] = N fertilization 400 mg/container, DAT 23

**Q.** Which results are given for Urea [reference compound]?
**A.** "Greenness" (%) (N supply) 100% = dark green [1, 3]: 100%; "Greenness" (%) (N supply) 100% = dark green [1, 4]: 100%; FW yield [1, 4]: 19.6 g/container; N content in the DM (%) [1, 4]: 4.3%; N uptake in the shoot [1, 4]: 84 mg/container; "Greenness" (%) (N supply) 100% = dark green [1, 5]: 100%; "Greenness" (%) (N supply) 100% = dark green [1, 6]: 100%; FW yield [1, 6]: 1.6 g/container; N content in the DM (%) [1, 6]: 6.5%; N uptake in the shoot [1, 6]: 10 mg/container; Dry-matter production ([2]; day 16 post-fertilization): 7.7 g/container; Nitrogen uptake ([2]; day 16 post-fertilization): 480 mg/container; Dry-matter production ([2]; day 30 post-fertilization): 5.6 g/container; Nitrogen uptake ([2]; day 30 post-fertilization): 311 mg/container; Dry-matter production ([2]; day 45 post-fertilization): 8.6 g/container; Nitrogen uptake ([2]; day 45 post-fertilization): 404 mg/container; Dry-matter production ([2]; day 58 post-fertilization): 8.6 g/container; Nitrogen uptake ([2]; day 58 post-fertilization): 410 mg/container; Dry-matter production ([2]; day 78 post-fertilization): 5.9 g/container; Nitrogen uptake ([2]; day 78 post-fertilization): 127 mg/container; Dry-matter production ([2]; day 100 post-fertilization): 2.3 g/container; Nitrogen uptake ([2]; day 100 post-fertilization): 50 mg/container; Dry-matter production ([2]; day 125 post-fertilization): 1.4 g/container; Nitrogen uptake ([2]; day 125 post-fertilization): 33 mg/container; Dry-matter production ([2]; day 174 post-fertilization): 1.4 g/container; Nitrogen uptake ([2]; day 174 post-fertilization): 27 mg/container

**Q.** Which results are given for “bis(N′-potassium sulfamate)malonic acid diureide [IaB]”?
**A.** "Greenness" (%) (N supply) 100% = dark green [1, 3]: 70%; "Greenness" (%) (N supply) 100% = dark green [1, 4]: 30%; FW yield [1, 4]: 7.1 g/container; N content in the DM (%) [1, 4]: 3.1%; N uptake in the shoot [1, 4]: 46 mg/container; "Greenness" (%) (N supply) 100% = dark green [1, 5]: 80%; "Greenness" (%) (N supply) 100% = dark green [1, 6]: 85%; FW yield [1, 6]: 4.7 g/container; N content in the DM (%) [1, 6]: 5.3%; N uptake in the shoot [1, 6]: 80 mg/container; "Greenness" (%) (N supply) 100% = dark green [1, 7]: 85%; "Greenness" (%) (N supply) 100% = dark green [1, 8]: 85%; FW yield [1, 8]: 3.7 g/container; N content in the DM (%) [1, 8]: 6.6%; N uptake in the shoot [1, 8]: 90 mg/container

**Q.** With “bis(N′-potassium sulfamate)succinic diureide [IaA]” as the substance, how does the “"Greenness" (%) (N supply) 100% = dark green” value (shortened to “"Greenness" (%)”) [1, 3] read?
**A.** The value was 30%.

**Q.** What about the “"Greenness" (%)” value [1, 4] of the same substance?
**A.** Its value is 30%.

**Q.** What about the FW yield [1, 4] of the same substance?
**A.** The FW yield was 10.4 g/container.

**Q.** And the “N content in the DM (%)” value [1, 4]?
**A.** Its value is 1.5%.

**Q.** And the “N uptake in the shoot” value [1, 4]?
**A.** Its value is 27 mg/container.

**Q.** What about the “"Greenness" (%)” value [1, 5] of the same substance?
**A.** Its value is 30%.

**Q.** And the “"Greenness" (%)” value [1, 6]?
**A.** Its value is 30%.

**Q.** What about the FW yield [1, 6] of the same substance?
**A.** Its FW yield is 10.4 g/container.

**Q.** And the “N content in the DM (%)” value [1, 6]?
**A.** The value was 1.7%.

**Q.** What about the “N uptake in the shoot” value [1, 6] of the same substance?
**A.** The value was 28 mg/container.

**Q.** What about the “"Greenness" (%)” value [1, 7] of the same substance?
**A.** Its value is 30%.

**Q.** What about the “"Greenness" (%)” value [1, 8] of the same substance?
**A.** The value was 30%.

**Q.** And the FW yield [1, 8]?
**A.** Its FW yield is 10.6 g/container.

**Q.** What about the “N content in the DM (%)” value [1, 8] of the same substance?
**A.** The value was 1.9%.

**Q.** And the “N uptake in the shoot” value [1, 8]?
**A.** The value was 29 mg/container.

**Q.** With fumaric acid diureide [Compound 1C] as the substance, how does the Dry-matter production ([2]; day 16 post-fertilization) read?
**A.** Its Dry-matter production is 4.2 g/container.

**Q.** And the Nitrogen uptake ([2]; day 16 post-fertilization)?
**A.** Its Nitrogen uptake is 112 mg/container.

**Q.** What about the Dry-matter production ([2]; day 30 post-fertilization) of the same substance?
**A.** The Dry-matter production was 1.9 g/container.

**Q.** What about the Nitrogen uptake ([2]; day 30 post-fertilization) of the same substance?
**A.** Its Nitrogen uptake is 60 mg/container.

**Q.** What about the Dry-matter production ([2]; day 45 post-fertilization) of the same substance?
**A.** The Dry-matter production was 2.1 g/container.

**Q.** What about the Nitrogen uptake ([2]; day 45 post-fertilization) of the same substance?
**A.** Its Nitrogen uptake is 69 mg/container.

**Q.** What about the Dry-matter production ([2]; day 58 post-fertilization) of the same substance?
**A.** The Dry-matter production was 3.4 g/container.

**Q.** What about the Nitrogen uptake ([2]; day 58 post-fertilization) of the same substance?
**A.** Its Nitrogen uptake is 108 mg/container.

**Q.** What about the Dry-matter production ([2]; day 78 post-fertilization) of the same substance?
**A.** The Dry-matter production was 3.3 g/container.

**Q.** What about the Nitrogen uptake ([2]; day 78 post-fertilization) of the same substance?
**A.** The Nitrogen uptake was 104 mg/container.

**Q.** And the Dry-matter production ([2]; day 125 post-fertilization)?
**A.** The Dry-matter production was 5.1 g/container.

**Q.** What about the Nitrogen uptake ([2]; day 125 post-fertilization) of the same substance?
**A.** The Nitrogen uptake was 138 mg/container.

**Q.** For malonic acid diureide [Compound 1A], which Dry-matter production ([2]; day 16 post-fertilization) is on record?
**A.** The Dry-matter production was 5.7 g/container.

**Q.** What about the Nitrogen uptake ([2]; day 16 post-fertilization) of the same substance?
**A.** The Nitrogen uptake was 185 mg/container.

**Q.** And the Dry-matter production ([2]; day 30 post-fertilization)?
**A.** The Dry-matter production was 2.5 g/container.

**Q.** And the Nitrogen uptake ([2]; day 30 post-fertilization)?
**A.** Its Nitrogen uptake is 97 mg/container.

**Q.** And the Dry-matter production ([2]; day 45 post-fertilization)?
**A.** The Dry-matter production was 3.8 g/container.

**Q.** What about the Nitrogen uptake ([2]; day 45 post-fertilization) of the same substance?
**A.** Its Nitrogen uptake is 130 mg/container.

**Q.** What about the Dry-matter production ([2]; day 58 post-fertilization) of the same substance?
**A.** Its Dry-matter production is 3.1 g/container.

**Q.** And the Nitrogen uptake ([2]; day 58 post-fertilization)?
**A.** Its Nitrogen uptake is 119 mg/container.

**Q.** What about the Dry-matter production ([2]; day 78 post-fertilization) of the same substance?
**A.** The Dry-matter production was 5.4 g/container.

**Q.** What about the Nitrogen uptake ([2]; day 78 post-fertilization) of the same substance?
**A.** The Nitrogen uptake was 180 mg/container.

**Q.** And the Dry-matter production ([2]; day 100 post-fertilization)?
**A.** The Dry-matter production was 6.3 g/container.

**Q.** What about the Nitrogen uptake ([2]; day 100 post-fertilization) of the same substance?
**A.** Its Nitrogen uptake is 204 mg/container.

**Q.** What about the Dry-matter production ([2]; day 125 post-fertilization) of the same substance?
**A.** Its Dry-matter production is 9.3 g/container.

**Q.** What about the Nitrogen uptake ([2]; day 125 post-fertilization) of the same substance?
**A.** The Nitrogen uptake was 283 mg/container.

**Q.** And the Dry-matter production ([2]; day 174 post-fertilization)?
**A.** Its Dry-matter production is 7.2 g/container.

**Q.** And the Nitrogen uptake ([2]; day 174 post-fertilization)?
**A.** Its Nitrogen uptake is 154 mg/container.

**Q.** And the Dry-matter production ([2]; day 252 post-fertilization)?
**A.** The Dry-matter production was 4.5 g/container.

**Q.** And the Nitrogen uptake ([2]; day 252 post-fertilization)?
**A.** The Nitrogen uptake was 145 mg/container.

**Q.** With succinic acid diureide [Compound 1B] as the substance, how does the Dry-matter production ([2]; day 16 post-fertilization) read?
**A.** The Dry-matter production was 4 g/container.

**Q.** And the Nitrogen uptake ([2]; day 16 post-fertilization)?
**A.** The Nitrogen uptake was 114 mg/container.

**Q.** What about the Dry-matter production ([2]; day 30 post-fertilization) of the same substance?
**A.** The Dry-matter production was 1.7 g/container.

**Q.** What about the Nitrogen uptake ([2]; day 30 post-fertilization) of the same substance?
**A.** Its Nitrogen uptake is 50 mg/container.

**Q.** What about the Dry-matter production ([2]; day 45 post-fertilization) of the same substance?
**A.** Its Dry-matter production is 1.3 g/container.

**Q.** And the Nitrogen uptake ([2]; day 45 post-fertilization)?
**A.** The Nitrogen uptake was 36 mg/container.

**Q.** What about the Dry-matter production ([2]; day 58 post-fertilization) of the same substance?
**A.** The Dry-matter production was 2.2 g/container.

**Q.** And the Nitrogen uptake ([2]; day 58 post-fertilization)?
**A.** Its Nitrogen uptake is 69 mg/container.

**Q.** What about the Dry-matter production ([2]; day 78 post-fertilization) of the same substance?
**A.** The Dry-matter production was 4.6 g/container.

**Q.** What about the Nitrogen uptake ([2]; day 78 post-fertilization) of the same substance?
**A.** Its Nitrogen uptake is 161 mg/container.

**Q.** What about the Dry-matter production ([2]; day 125 post-fertilization) of the same substance?
**A.** Its Dry-matter production is 9.6 g/container.

**Q.** What about the Nitrogen uptake ([2]; day 125 post-fertilization) of the same substance?
**A.** The Nitrogen uptake was 281 mg/container.
